Measured values from patent publication US20060063930A1, “Compositions and methods comprising proteinase activated receptor antagonists” (priority 2004, published 2006).

What was measured:
[1] = system: angiogenesis in Matrigel plug, C57/BL6 mice; assay: In vivo Matrigel angiogenesis assay (FGF-2, hemoglobin content in the plug); parameters: species or system mouse; settings: subcutaneously daily for 6 days
PAR-2 [2] = assay: Inhibition of PAR-2 activating peptide (AP2) calcium signaling in cells pretreated with antagonist; format: cell-based, human
Procedure, shortened: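 LLC cells loaded with Fluo-4 (4 uM final), and U87-MG glioma cells loaded with FLIPR Calcium 3 dye with 2.5 mM probenecid, were pretreated with antagonist, then stimulated with PAR-2 activating peptide. Initial screening was at 1 mM. Calcium AUC of treated over control wells is reported as T/C.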

PAR-1 = biological target: T1, PAR-1 (Homo sapiens, UniProt P25116); assay: Inhibition of PAR-1 activation peptide (SFLLRN) calcium signaling in pretreated cells; format: cell-based; settings: cells pretreated with antagonist
T1 construct: endogenous in cells
T1 sequence (P25116 22-425): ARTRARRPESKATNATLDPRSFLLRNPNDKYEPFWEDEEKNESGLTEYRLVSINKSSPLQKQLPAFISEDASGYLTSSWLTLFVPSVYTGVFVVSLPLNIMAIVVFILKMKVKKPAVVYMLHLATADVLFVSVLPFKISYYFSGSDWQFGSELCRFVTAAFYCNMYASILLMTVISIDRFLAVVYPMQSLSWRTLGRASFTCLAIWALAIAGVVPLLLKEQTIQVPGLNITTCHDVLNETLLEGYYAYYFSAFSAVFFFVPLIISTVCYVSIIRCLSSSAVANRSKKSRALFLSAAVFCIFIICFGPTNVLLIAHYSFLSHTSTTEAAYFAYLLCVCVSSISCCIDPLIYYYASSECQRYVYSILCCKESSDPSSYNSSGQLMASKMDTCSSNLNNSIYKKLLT
Experimental: (§1) In order to assess the potential of peptides and molecules selected above to block PAR-2 signaling, cells were pretreated with potential antagonist peptides for a predetermined amount of time and were subsequently treated with various GPCR agonists. Confluent Lewis lung carcinoma (LLC) cells were loaded for 30-60 minutes with the fluorescent dye Fluo-4. Final concentration 4 uM Fluo-4, 0.02% pluronic acid in physiological buffer. Cells were then washed with assay buffer, (HBSS containing 1 mM CaCl2, 1 mM MgSO4, and 2.5 mM probenecid). Cells were stimulated with various doses of PAR-2 activating peptide, PAR-1 activating peptide or ATP. Fluorescence was monitored using a Wallac 1470 fluorescent plate reader. (See Al-ani et. al Journal of Pharmacology and Experimental Therapeutics 290:2, 753-760). Additional compound screening was performed using U87-MG human glioma cells. In this assay cells were labeled with FLIPR Calcium 3 dye (Component A), which was dissolved in 10 mls of Assay Buffer without Probenecid. Loading buffer was prepared by diluting Component A with an additional 90 mls of Assay Buffer without Probenecid, giving a total volume of a 100 ml. […] Calcium signaling was then measured using a Flexstation II (Molecular Devices) following manufacturer's instructions. […]

ATP signaling = assay: Inhibition of ATP calcium signaling in pretreated cells; format: cell-based; settings: cells pretreated with antagonist
Experimental: as §1

BALB/c mice, arthritis = assay: Anti-collagen II antibody/LPS arthritis in mice (hind feet thickness); format: in vivo, mouse; settings: 200 mg/kg/day intraperitoneally for 7 days
Experimental: (§2) On day 0, BALB/c mice were injected intravenously with the 1-2 mg 1B11 monoclonal anti-collagen II antibody. On day 1, animals were injected intraperitoneally with 20 μg LPS, and treatment with PAR-2 antagonists (200 mg/kg/day, intraperitoneally) for 7 days. After treatment was completed, disease is quantified by measuring the thickness (swelling) in both hind feet of the mouse. This was compared to untreated mice (p<0.05 vs. vehicle control).

PAR-2 [3] = assay: PAR signalling activity: calcium mobilization (Fluo-4) in response to peptide; format: cell-based; settings: FIGS. 2A-2C
Experimental: Confluent HUVECs, Lewis lung carcinoma cells or U87-MG glioma cells or HT29 colon carcinoma cells were loaded for 30-60 minutes with the fluorescent dye Fluo-4. Final concentration 4 uM Fluo-4, 0.02% pluronic acid in physiological buffer. Cells were then washed with assay buffer, (HBSS containing 1 mM CaCl2, 1 mM MgSO4, and 2.5 mM probenecid). Cells were stimulated with various doses of PAR-2 activating peptide, PAR-1 activating peptide or ATP. Fluorescence was monitored using a Wallac 1470 fluorescent plate reader. (See Al-ani et. al Journal of Pharmacology and Experimental Therapeutics 290:2, 753-760)
Calcium mobilization curves of the PAR-2 agonist SLIGKV (ENMD-1003) (SEQ ID NO:52) compared with two truncated molecules LIGK (ENMD-1005) (SEQ ID NO:1) and LIGKV (ENMD-1007) (SEQ ID NO:2) are provided in FIG. 2A. […] Similar studies were performed on alanine substituted SLIGKV (ENMD-1003) (SEQ ID NO:52) peptides (FIGS. 2B and 2C).

PAR-2 [4] = biological target: T2, PAR-2 (Mus musculus, UniProt P55086); assay: PAR-2 agonist peptide induced murine footpad edema model; format: in vivo; settings: co-treatment in footpad, C57BL6 mice, 1 hour
T2 construct: from tissue; host or cells: footpad of living C57BL6 mice
T2 sequence (P55086 26-399): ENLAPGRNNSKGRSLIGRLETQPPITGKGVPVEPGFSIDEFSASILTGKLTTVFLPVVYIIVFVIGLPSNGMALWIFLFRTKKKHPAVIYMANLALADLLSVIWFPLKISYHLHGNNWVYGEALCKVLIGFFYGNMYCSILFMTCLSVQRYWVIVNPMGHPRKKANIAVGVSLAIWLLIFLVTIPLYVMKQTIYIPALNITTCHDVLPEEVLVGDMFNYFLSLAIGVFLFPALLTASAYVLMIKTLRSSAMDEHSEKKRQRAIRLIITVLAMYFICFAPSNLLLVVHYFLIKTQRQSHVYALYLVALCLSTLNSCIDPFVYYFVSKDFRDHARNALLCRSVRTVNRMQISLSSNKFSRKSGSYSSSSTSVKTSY
Experimental: C57BL6 mice were injected with 5-25 μg of SLIGKV (ENMD-1003) (SEQ ID NO:52) into their footpad, in the presence or absence of increasing amounts of various PAR-2 antagonists. One hour later, footpad (tarsus) thickness was measured to quantify inflammation (edema).
The inventors next assessed whether the LIGK (ENMD-1005) (SEQ ID NO:1) peptide had in vivo PAR-2 antagonistic activity. This was studied using an edema model where vascular permeability was induced by the PAR-2 agonist peptide. In this model, the PAR-2 peptide induces severe edema as previously reported (FIG. 6). This vascular response was blocked by co-treatment with the PAR-2 antagonist LIGK (ENMD-1005) (SEQ ID NO:1) (FIG. 6). Thus, LIGK (ENMD-1005) (SEQ ID NO:1) functions in vivo to block PAR-2 signaling.

[5] = system: BALB/c mice, LPS induced weight loss; assay: Arthrogen-CIA induced body weight loss in mice; format: in vivo, mouse; settings: 200 mg/kg/day intraperitoneally for 7 days
Experimental: as §2, with “i.v.” for “intravenously”, “mg/kg/day” for “mg/kg/day,”, “mice. This model results in significant weight loss associated with the administration of LPS.” for “mice (p<0.05 vs. vehicle control).”

In the case of LIGK [ENMD-1005], the “Inhibition of angiogenesis (hemoglobin content in the plug)” value ([1]; highest dose) is reported as “more than 80%”, the “Inhibition of angiogenesis (in words)” value [1] is reported as “dose dependent inhibition of angiogenesis” and the “Block of AP2 signaling” value (PAR-2 [2]; 1 mM LIGK against 100 uM SLIGKV (FIG. 3)) is reported as “completely blocked”. For the same substance, the IC50 (PAR-2 [2]; AP2 stimulated HT29 cells (FIG. 4)) was under 500 µM, the “PAR-2 antagonist activity in vitro (in words)” value (PAR-2 [2]; pretreated cells, then P2AP) was “demonstrated antagonist activity” and the “Inhibitory effect on PAR-1 signaling” value (PAR-1) was “no inhibitory effect”. For the same substance, the “Inhibitory effect on ATP signaling” value (ATP signaling) was “no inhibitory effect”, the “Effect on inflammation / arthritis” value (BALB/c mice, arthritis) was “inhibited inflammation” and the “Calcium mobilization / PAR-2 signaling activity (in words)” value (PAR-2 [3]) was “Neither truncated molecule was able to induce calcium mobilization”. For the same substance, the “Effect on PAR-2 peptide induced edema (vascular response)” value (PAR-2 [4]) was “blocked” and the “Effect on LPS induced weight loss” value [5] was “abrogated this LPS induced weight loss”.
